# According to patent US10213409B2, “Substituted benzofurans, benzothiophenes, benzoselenophenes and indoles and their use as tubulin polymerisation inhibitors” (Bionomics Limited, priority 2006, dated 2019):
# How the values were obtained:
# [1] = tested on: Human umbilical vein endothelial cells (HUVECs), normal quiescent type (Norm); experiment: Proliferation Assay - Quiescent Endothelium (MTT); format: cell-based; conditions: HUVEC
# Protocol: Proliferation Assay—Quiescent Endothelium:
# (§1) Cells were cultured overnight at 37° C. 5% CO2. Medium was subsequently replaced with fresh medium including the compound or negative control. Cells were cultured for a period of 48 hrs. An MTT assay was performed to measure changes in cell numbers. Briefly, 20 μl of MTT reagent was added to cells containing 100 μl of EBM2+0.5% FBS and incubated at 37° C. for 2 hours.
# MCF-7 = experiment: Growth inhibition, Sulforhodamine B (SRB) or Systmex cell counting (CC) assay, MCF-7; format: cell-based; conditions: Homo sapiens, MCF7, concentration required to inhibit net cell growth by 50%, read-out: Cancer cell line IC50
# tubulin = experiment: Tubulin Polymerisation Assay (fluorescent-based kit); format: biochemical; conditions: compared with CA4 (1), FIG. 3
# Protocol: Tubulin Polymerisation Assay:
# Tubulin polymerisation inhibition assays were performed using a fluorescent-based detection kit (#BK011, Cytoskeleton) according to the instructions of the manufacturer. The test compound was added to a 2 mg/ml tubulin solution containing 20% glycerol and 1 mM GTP in 1× Buffer 1 (Buffer 1: 80 mM Piperazine-N,N′-bis[2-ethanesulfonic acid] sequisodium salt; 2 mM magnesium chloride; 0.5 mM Ethylene glycol-bis(b-amino-ethyl ether)N,N,N′,N′-tetra-acetic acid, pH 6.9, 10 uM fluorescent reporter). Fluorescence was measured over a period of 42 minutes at 1 minute intervals. Increased fluorescence indicates increase in tubulin polymerisation. There is a ten-fold increase in the affinity of the fluorescent reporter for polymerised tubulin compared to monomeric tubulin subunits. The result is a fluorescence signal that closely follows tubulin polymerisation.
# [2] = tested on: Human umbilical vein endothelial cells (HUVECs), tumour type activated (Tum); experiment: Proliferation Assay - Activated Endothelium (MTT); format: cell-based; conditions: for IC50: Homo sapiens, HUVEC, tumour type activated endothelial cells; for potency towards activated (tumour) versus quiescent (normal) endothelial cells: comparison of activated and quiescent HUVEC assays, FIGS. 1 and 2, Table 1
# Protocol: Proliferation Assay—Activated Endothelium:
# as §1, with “EGM2” for “EBM2+0.5% FBS”
# [3] = tested on: MDA MB 231 orthotopic xenografts; experiment: Vascular Disruption Assay (tumor perfusion, Hoechst 33342); format: in vivo, BALB/c-nu/nu mice; conditions: compared with CA4 / CA4P, FIG. 4; i.v., 24 hours after injection
# Excerpt: Vascular Disruption Assay:
# Female athymic BALB/c-nu/nu mice (nude mice) were used for this study. Mice were between 6-8 weeks old and were purchased from the Animal Resource Centre, Perth, Western Australia and allowed to acclimatize for a couple of days. All the animals were housed under pathogen-free conditions and cared for in accordance with Flinders University of South Australia and NH&MRC guidelines and the Australian Code of Practice for the care and use of animals for scientific purposes. The human breast cancer MDA MB 231 was grown as orthotopic xenografts in the mammary fat pad of nude mice. Each mouse was injected with 2×10^6 cells in 50 μl Dulbecco's PBS subcutaneously just above the mammary fat pad, below the right forward limb. Tumors were selected for treatment when they reached a diameter of […] (3 weeks after implantation). The test compound (Example 29) was dissolved in saline solution and injected intravenously at concentrations ranging from 150 mg/kg-1 mg/kg in a total volume of 400 ul. […] Non-tumor regions were mapped on Hoechst 33342 composite images and excluded from the quantitation analysis. Quantitation was performed by measuring the pixel area of Hoechst 33342 staining and the total pixel area of the tumor region. Perfusion was expressed as a percentage of Hoechst 33342 stained area to total tumor area (see FIG. 4).
# [4] = tested on: MDA-MB-231 solid orthotopic tumors; experiment: Tumor Growth Inhibition; format: in vivo, Balb/c nu/nu mice; conditions: 40 mg/kg i.v., two cycles, 72 days; vs vehicle, significant from day 4 (p<0.001) to Day 70, FIG. 5
# Protocol: Balb/c nu/nu mice bearing MDA-MB-231 solid orthotopic tumors were treated with compound Example 29 at 40 mg/kg. Animals were i.v. dosed with a total of two cycles of Example 29 treatment. Each cycle was dosing on […] followed by a three week no-dosing period. Tumor growth represented as a ratio to initial tumor volume is shown over a total of 72-days.
# Tumor growth as well as animal health were monitored for up to 72 days post-day 1 of treatment. […] Significant differences in tumor growth between Example 29 treated (n=64) and vehicle treated (n=20) animals were observed as early as day 4 (p<0.001; unpaired t-test; Prism® analysis) through to Day 70.
# MDA-MB-231 = experiment: Growth inhibition, Sulforhodamine B (SRB) or Systmex cell counting (CC) assay, MDA-MB-231; format: cell-based; conditions: Homo sapiens; MDA-MB-231 (footnote b); concentration required to inhibit net cell growth by 50%; read-out: Cancer cell line IC50
IC50 (MCF-7) [nM],IC50 (MDA-MB-231) [nM],SMILES,IC50 [1] [nM],potency in inhibiting tubulin polymerisation (tubulin),IC50 [2] [nM],potency towards activated (tumour) versus quiescent (normal) endothelial cells [2],potency at shutting-down tumour vasculature (reduction in tumour perfusion) [3],tumor growth (ratio to initial tumor volume) [4]
2,,"COc1cc(C(=O)c2c(C)oc3c(O)c(OC)ccc23)cc(OC)c1OC [Example 11, 2-Methyl-7-hydroxy-3-(3,4,5-trimethoxybenzoyl)-6-methoxybenzofuran]",10 to 100,significantly greater potency than CA4 (1),0.1 to 1,higher potency towards tumour endothelial cells (activated) over normal endothelial cells (quiescent),,
,,"COc1cc(C(=O)c2c(C)oc3c(OP(=O)([O-])[O-])c(OC)ccc23)cc(OC)c1OC.[Na+].[Na+] [Example 29, Disodium 6-methoxy-2-methyl-3-(3,4,5-trimethoxybenzoyl)benzofuran-7-yl phosphate]",,,,,significantly greater potency than CA4 (1),tumor growth inhibition
,1 to 10,"COc1cc(C(=O)c2c(/C=C/C(N)=O)oc3c(O)c(OC)ccc23)cc(OC)c1OC [Example 15, (E)-3-[7-Hydroxy-6-methoxy-3-(3,4,5-trimethoxy-benzoyl)benzofuran-2-yl]-acrylamide]",1 to 10,,1 to 10,higher potency towards tumour endothelial cells (activated) over normal endothelial cells (quiescent),,
,1 to 10,"COC(=O)c1oc2c(O)c(OC)ccc2c1C(=O)c1cc(OC)c(OC)c(OC)c1 [Example 17, 7-Hydroxy-6-methoxy-3-(3,4,5-trimethoxy-benzoyl)-benzofuran-2-methylcarboxylate]",1 to 10,,1 to 10,,,
,1 to 10,"COc1cc(C(=O)c2c(NCCO)oc3c(O)c(OC)ccc23)cc(OC)c1OC [Example 20, [7-Hydroxy-2-(2-hydroxy-ethylamino)-6-methoxy-benzofuran-3-yl]-(3,4,5-trimethoxy-phenyl)methanone]",1 to 10,,1 to 10,,,
,1 to 10,"COC(=O)CNc1oc2c(O)c(OC)ccc2c1C(=O)c1cc(OC)c(OC)c(OC)c1 [Example 24, [7-Hydroxy-6-methoxy-3-(3,4,5-trimethoxy-benzoyl)-benzofuran-2-ylamino]-acetic acid methyl ester]",1 to 10,,1 to 10,,,

SMILES,IC50 (MCF-7) [nM],IC50 (MDA-MB-231) [nM],IC50 [1] [nM],potency in inhibiting tubulin polymerisation (tubulin),IC50 [2] [nM],potency towards activated (tumour) versus quiescent (normal) endothelial cells [2],potency at shutting-down tumour vasculature (reduction in tumour perfusion) [3],tumor growth (ratio to initial tumor volume) [4]
"COc1cc(C(=O)c2coc3c(N)c(OC)ccc23)cc(OC)c1OC [Example 2, (7-Amino-6-methoxybenzofuran-3-yl)(3,4,5-trimethoxyphenyl)methanone]",,1 to 10,1 to 10,,1 to 10,,,
